Patent US20180272270A1, “AMINE COMPOUNDS FOR SELECTIVELY REMOVING HYDROGEN SULPHIDE” (BASF SE, priority 2015, published 2018)

Assay: Dynamic viscosity of the amines (Anton Paar Stabinger SVM3000 viscometer)
Format: physicochemical

Dynamic viscosity (20 ° C.) [mPa · s]	Dynamic viscosity (60 ° C.) [mPa · s]	Dynamic viscosity (80 ° C.) [mPa · s]	Dynamic viscosity (40 ° C.) [mPa · s]	Structure (SMILES)
58.4	6.9	3.6		CC(C)(C)NCCOCCO [TBAEE, 2-(2-tert-butylaminoethoxy)ethanol, reference compound]
5.4	1.6	1.1	2.5	CN(C)CCOCCNC(C)(C)C [TBAEEDA, 2-(2-tert-butylaminoethoxy)ethyl-N,N-dimethylamine]
